One data set concerns HEK 293T cells. In words: CellTiter Blue assay. Format: cell-based, human. The note with it: about 16 hours treatment, viability normalised to vehicle. On the procedure:
HEK 293T cells (ATCC CRL-3216) were grown in DMEM medium, supplemented with 10% FBS, 1 mM sodium pyruvate, non-essential amino acids. 100 μL of 10 000 cells were grown in flat-bottom 96-well plates (Fischer Scientific) overnight until cells are attached to the plate. Peptides were dissolved with Mini-plasco Nacl 0.9% (B. Braun) to 2 mg/mL and diluted to indicated concentrations using cell culture medium. Cells were treated by adding 100 μL peptides to each well for about 16 hours. Cells lysed with 1% Triton X-100 was included as a positive control. The toxicity of the peptide treatments was evaluated using the CellTiter-Blue Cell Viability Assay according to the instructions of the manufacturer (Promega, USA). The metabolic activity of viable cells is measured by recording fluorescence intensity at 590 nm after excitation at 560 nm. Cell viability is determined by normalising the fluorescence intensity of peptide- or triton-treated cells to the vehicle-treated sample.

For the next data set, the system named is E. coli BL21. The note with it: BL21, 17 h. The procedure, abridged:
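EUCAST broth microdilution in Mueller-Hinton medium; end-exponential culture diluted to 0.005 McF (~1.5x10^6 CFU/mL) before 1:1 mixing with two-fold peptide dilutions (0.75 to 100 μg/mL), triplicates.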

Residues, ends and D or L forms follow the SMILES beside them.

Turning to `CC(C)C[C@H](NC(=O)CNC(=O)[C@H](CCCNC(=N)N)NC(=O)[C@H](CC(C)C)NC(=O)[C@H](C)NC(=O)[C@H](CCCNC(=N)N)NC(=O)[C@@H](NC(=O)[C@H](CC(C)C)NC(=O)[C@H](C)NC(=O)[C@H](CC(C)C)NC(=O)CNC(=O)[C@H](CC(C)C)NC(=O)CNC(=O)[C@@H](N)CCCNC(=N)N)C(C)C)C(=O)NCC(=O)N[C@@H](CC(C)C)C(=O)N[C@@H](C)C(=O)N[C@@H](CC(C)C)C(=O)N[C@H](C(=O)N[C@@H](C)C(=O)N[C@@H](CCCNC(=N)N)C(=O)O)C(C)C` [Peptide P2_4R_L] (H-RGLGLALVRALRGLGLALVAR-OH), in the data set with HEK 293T cells, the “toxicity on HEK 293T cells” value is “induced toxicity effects”.

`CC(C)C[C@H](NC(=O)CNC(=O)[C@H](CCCNC(=N)N)NC(=O)[C@@H](NC(=O)CNC(=O)[C@H](CCCNC(=N)N)NC(=O)[C@H](CCCNC(=N)N)NC(=O)[C@@H](NC(=O)[C@H](CC(C)C)NC(=O)[C@H](C)NC(=O)[C@H](CC(C)C)NC(=O)CNC(=O)[C@H](CC(C)C)NC(=O)CNC(=O)[C@@H](N)CCCNC(=N)N)C(C)C)C(C)C)C(=O)NCC(=O)N[C@@H](CC(C)C)C(=O)N[C@@H](C)C(=O)N[C@@H](CC(C)C)C(=O)N[C@H](C(=O)N[C@@H](CCCNC(=N)N)C(=O)N[C@@H](CCCNC(=N)N)C(=O)O)C(C)C` [Peptide P2_GV] (H-RGLGLALVRRGVRGLGLALVRR-OH): the “toxicity on HEK 293T cells” value in the data set on HEK 293T cells is reported as “induced toxicity effects”.

For `CC(C)C[C@H](NC(=O)CNC(=O)[C@H](CCCNC(=N)N)NC(=O)[C@@H]1CCCN1C(=O)[C@H](CCCNC(=N)N)NC(=O)[C@H](CCCNC(=N)N)NC(=O)[C@@H](NC(=O)[C@H](CC(C)C)NC(=O)[C@H](C)NC(=O)[C@H](CC(C)C)NC(=O)CNC(=O)[C@H](CC(C)C)NC(=O)CNC(=O)[C@@H](NC(=O)[C@H](Cc1ccccc1)NC(=O)[C@@H](NC(=O)[C@@H](N)CCCNC(=N)N)C(C)C)C(C)C)C(C)C)C(=O)NCC(=O)N[C@@H](CC(C)C)C(=O)N[C@@H](C)C(=O)N[C@@H](CC(C)C)C(=O)N[C@H](C(=O)N[C@@H](CCCNC(=N)N)C(=O)N[C@@H](CCCNC(=N)N)C(=O)O)C(C)C` [Peptide P2_VFV] (H-RVFVGLGLALVRRPRGLGLALVRR-OH), the “toxicity on HEK 293T cells” value with HEK 293T cells was “higher toxicity at 400 μg/mL and 200 μg/mL than P2”.

For the compound `CC[C@H](C)[C@H](NC(=O)CNC(=O)[C@H](CC(C)C)NC(=O)[C@H](C)NC(=O)[C@@H]1CCCN1C(=O)[C@H](CCCNC(=N)N)NC(=O)[C@H](CCCNC(=N)N)NC(=O)[C@H](CC(C)C)NC(=O)[C@H](C)NC(=O)[C@@H](NC(=O)[C@H](C)NC(=O)[C@@H](NC(=O)CNC(=O)[C@H](CC(C)C)NC(=O)[C@@H](N)CCCNC(=N)N)[C@@H](C)CC)C(C)C)C(=O)N[C@@H](C)C(=O)N[C@H](C(=O)N[C@@H](C)C(=O)N[C@@H](CC(C)C)C(=O)N[C@@H](C)C(=O)N[C@@H](CCCNC(=N)N)C(=O)O)C(C)C` [Peptide P33_4R_5] (H-RLGIAVALRRPALGIAVALAR-OH), in the data set with E. coli BL21, the “BL21 MIC” value is 12.50 µg/mL.

In the case of `CC[C@H](C)[C@H](NC(=O)CNC(=O)[C@H](CC(C)C)NC(=O)[C@H](CCCNC(=N)N)NC(=O)[C@@H]1CCCN1C(=O)[C@H](CCCNC(=N)N)NC(=O)[C@H](CCCNC(=N)N)NC(=O)[C@H](CC(C)C)NC(=O)[C@H](C)NC(=O)[C@@H](NC(=O)[C@H](C)NC(=O)[C@@H](NC(=O)CNC(=O)[C@H](CC(C)C)NC(=O)[C@@H](N)CCCNC(=N)N)[C@@H](C)CC)C(C)C)C(=O)N[C@@H](C)C(=O)N[C@H](C(=O)N[C@@H](C)C(=O)N[C@@H](CC(C)C)C(=O)N[C@@H](C)C(=O)N[C@@H](C)C(=O)O)C(C)C` [Peptide P33_4R_6] (H-RLGIAVALRRPRLGIAVALAA-OH), the “BL21 MIC” value in the data set with E. coli BL21 was 12.50 µg/mL.

In the case of `CC(C)C[C@H](NC(=O)CNC(=O)[C@H](CCCNC(=N)N)NC(=O)[C@@H]1CCCN1C(=O)[C@H](CCCNC(=N)N)NC(=O)[C@H](C)NC(=O)[C@@H](NC(=O)[C@H](CC(C)C)NC(=O)[C@H](C)NC(=O)[C@H](CC(C)C)NC(=O)CNC(=O)[C@H](CC(C)C)NC(=O)CNC(=O)[C@@H](N)CCCNC(=N)N)C(C)C)C(=O)NCC(=O)N[C@@H](CC(C)C)C(=O)N[C@@H](C)C(=O)N[C@@H](CC(C)C)C(=O)N[C@H](C(=O)N[C@@H](C)C(=O)N[C@@H](CCCNC(=N)N)C(=O)O)C(C)C` [R9A, R20A] (H-RGLGLALVARPRGLGLALVAR-OH), in the data set with E. coli BL21, the “BL21 MIC” value was found to be 50.00 µg/mL.

As for `CC(C)C[C@H](NC(=O)CNC(=O)[C@H](CCCNC(=N)N)NC(=O)[C@@H]1CCCN1C(=O)[C@H](CCCNC(=N)N)NC(=O)[C@H](C)NC(=O)[C@@H](NC(=O)[C@H](CC(C)C)NC(=O)[C@H](C)NC(=O)[C@H](CC(C)C)NC(=O)CNC(=O)[C@H](CC(C)C)NC(=O)CNC(=O)[C@@H](N)CCCNC(=N)N)C(C)C)C(=O)NCC(=O)N[C@@H](CC(C)C)C(=O)N[C@@H](C)C(=O)N[C@@H](CC(C)C)C(=O)N[C@H](C(=O)N[C@@H](CCCNC(=N)N)C(=O)N[C@@H](C)C(=O)O)C(C)C` [R9A, R21A] (H-RGLGLALVARPRGLGLALVRA-OH), the “BL21 MIC” value in the data set with E. coli BL21 was greater than 100.00 µg/mL.

Regarding `CC(C)C[C@H](NC(=O)CNC(=O)[C@H](CCCNC(=N)N)NC(=O)[C@@H]1CCCN1C(=O)[C@H](CCCNC(=N)N)NC(=O)[C@H](CCCNC(=N)N)NC(=O)[C@H](CO)NC(=O)[C@H](CC(C)C)NC(=O)[C@H](C)NC(=O)[C@H](CC(C)C)NC(=O)CNC(=O)[C@H](CC(C)C)NC(=O)CNC(=O)[C@@H](N)CCCNC(=N)N)C(=O)NCC(=O)N[C@@H](CC(C)C)C(=O)N[C@@H](C)C(=O)N[C@@H](CC(C)C)C(=O)N[C@@H](CO)C(=O)N[C@@H](CCCNC(=N)N)C(=O)N[C@@H](CCCNC(=N)N)C(=O)O` [V7S (P2)] (H-RGLGLALSRRPRGLGLALSRR-OH), the “BL21 MIC” value with E. coli BL21 was 100.00 µg/mL.

Consider `CC(C)C[C@H](NC(=O)CNC(=O)[C@H](CCCNC(=N)N)NC(=O)[C@@H]1CCCN1C(=O)[C@H](CCCNC(=N)N)NC(=O)[C@H](CCCNC(=N)N)NC(=O)[C@@H](NC(=O)[C@H](CC(C)C)NC(=O)[C@H](C)NC(=O)[C@H](CC(C)C)NC(=O)CNC(=O)[C@H](CC(C)C)NC(=O)CNC(=O)[C@@H](N)CCCNC(=N)N)[C@@H](C)O)C(=O)NCC(=O)N[C@@H](CC(C)C)C(=O)N[C@@H](C)C(=O)N[C@@H](CC(C)C)C(=O)N[C@H](C(=O)N[C@@H](CCCNC(=N)N)C(=O)N[C@@H](CCCNC(=N)N)C(=O)O)[C@@H](C)O` [V7T (P2)] (H-RGLGLALTRRPRGLGLALTRR-OH), for which the “BL21 MIC” value in the data set with E. coli BL21 is 50.00 µg/mL.

These data come from publication PMC10065276, “Enhanced therapeutic window for antimicrobial Pept-ins by investigating their structure-activity relationship” (PLOS ONE, 2023).
